Assay results as given in patent publication US20170224772A1, “COMPOSITION AND KIT FOR PREVENTION OR TREATMENT OF ARTHRITIS, AND METHOD USING THE SAME” (Samsung Electronics Co., Ltd., priority 2014, published 2017).
Marks after values point to notes of the source that are not given here.

Key:
Assay type in all cases: in vivo, mouse (DBA/1)
cytokine [1] = test: Cytokine concentration in splenocyte culture medium, cultured in the presence of LPS; conditions: LPS 2.5 μg/ml, 48 hours
Procedure: (§1) Mice were divided into five groups, and saline solution, hASCs, and CTLA4Ig-hASC were intravenously injected to mouse tails on Day 63, Day 70, Day 77, and Day 84 after immunization as shown in Table 1 below.
(§2) Splenocytes of each group were separated. 2.5×10^5/well of splenocytes cultured in 96-well plate (Nunc) in a final volume of 200 μl including or not including 100 μg/ml of Type II collagen (Sigma Aldrich), 2.5 μg/ml of concanavalin A (ConA) (Sigma Aldrich), and 2.5 μg/ml of lipopolysaccharide (LPS) (Sigma Aldrich). The cells were incubated in humidified air at 37° C. for 48 hours. Then, the supernatant of the splenocyte culture medium was obtained and stored at −70° C. By the same method, lymph node cells were cultured in a culture medium including ConA, and the supernatant of lymph node cell culture solution was obtained.
(§3) The cytokine concentration in serum, knee extract, and the obtained supernatant of the culture solutions of splenocytes and lymph node cells was measured by using a multiplex cytokine/chemokine kit (Milliplex MAP mouse cytokine/chemokine kit, Millipore) by following the protocol provided by the manufacturer. As cytokines, tumor necrosis factor (TNF)-αinterferon (IFN)-α, interleukin (IL)-1α, IL-1β, IL-2, IL-4, IL-6, IL-10, IL-12p70, IL-15, IL-17, keratinocyte-derived chemokine (KC), monocyte chemotactic protein (MCP)-1, macrophage inflammatory protein (MIP)-2, and regulated-upon-activation normal T-cell expressed and secreted (RANTES) were measured.
(§4) The data obtained from each group was compared by performing a Kruskal Wallis test (†: P<0.05) or a (Mann-Whitney U test) (*: significant difference in comparison with the negative control group (p<0.05)).

cytokine [2] = test: Multiplex measurement of cytokine concentration in knee extract
Procedure: as §1
(§5) To verify the variation of cytokine expression according to transplantation of hASC or CTLA4Ig-hASC, the serum, knee extract, splenocytes, and lymph node cells obtained in Example 1-2 were prepared.
as §3
(§6) The cytokine concentration (pg/ml) in the splenocyte culture medium that was cultured in the presence of Type II collagen, ConA, an LPS is shown in Tables 4 to 6, respectively. The cytokine concentration (pg/ml) in the lymph node cell culture solution that was cultured in the presence of ConA is shown in Table 7.
as §4

[3] = tested on: Mice in which rheumatoid arthritis was induced; test: Histopathological assessment of knee cartilage (H&E, Safranin O); conditions: H&E and Safranin O, Week 13 after first immunization
Source text: as §1
(§7) Knee cartilage tissues were stained to investigate the degree of cartilage injury and bone injury by rheumatoid arthritis, and micro-computed tomography images were obtained to verify morphologic defects in paw joints.
In Week 13 after the first immunization, knee cartilage tissues were obtained from the animals of Example 1-2. The obtained knee cartilage tissues were fixed by using 10% (v/v) neutral buffered formalin (Sigma-Aldrich), and the resulting solution was stirred by using a rapid decalcifier (Thermo Scientific) for 24 hours to decalcify. When an osseous tissue was easily cut by a razor, it was assumed that the tissue was completely decalcified. The decalcified osseous tissue was dehydrate and embedded in paraffin. To assess histopathological injury, the paraffin-embedded tissue was cut into 4 μm-thick slices, and the paraffin was removed from the slices by using xylene. Then, the slices were rehydrated by using a graded alcohol, and stained by using hematoxylin and eosin (H&E) (DAKO) and Safranin O (IHC World). […]

cytokine [4] = test: Cytokine concentration in splenocyte culture medium, cultured in the presence of Type II collagen; conditions: Type II collagen 100 μg/ml, 48 hours
Procedure: as §1, §5, §2, §3
The cytokine concentration (pg/ml) in the splenocyte culture medium that was cultured in the presence of Type II collagen, ConA, an LPS is shown in Tables 4 to 6, respectively. The cytokine concentration (pg/ml) in the lymph node cell culture solution that was cultured in the presence of ConA is shown in Table 7. […]

[5] = tested on: Mice in which rheumatoid arthritis was induced; test: Micro-CT verification of morphologic defects in paw joints; conditions: score 0-4
Source text: as §1, §7
To verify morphological defects in paw joints, the mice paw obtained in Example 1-2 were fixed by using 4%(v/v) formalin (Sigma-Aldrich), and images of the mouse paws were obtained by using Inveon Preclinical CT (Siemens Healthcare) that is a micro-CT scanner at 40 μm of thickness, 0.6 second of exposure time, 70 keV of […] energy, and 400 μA of current. The images were reconstructed into three-dimensional images by using IRW software (Siemens Healthcare).
The data were compared among the groups by performing an ANOVA and then Tukey's multiple comparison tests. A significant difference in comparison with the negative control group was marked as “*” (p<0.05).

cytokine [6] = test: Cytokine concentration in lymph node cell culture solution, cultured in the presence of ConA
Procedure: as §1, §5
Splenocytes of each group were separated. 2.5×10^5/well of splenocytes cultured in 96-well plate (Nunc) in a final volume of 200 μl including or not including 100 μg/ml of Type II collagen (Sigma Aldrich), 2.5 μg/ml of concanavalin A (ConA) (Sigma Aldrich), and 2.5 μg/ml of lipopolysaccharide (LPS) (Sigma Aldrich). […]
as §3, with “measured. […]” for “measured.”

[7] = tested on: Mice in which rheumatoid arthritis was induced; test: Assessment of arthritis severity (score of edema and flare at fore and hind paws); conditions: 0-4 per leg, maximum 16; after three times of administration; in comparison with negative control group
Procedure: (§8) Chicken type II collagen (Sigma-Aldrich) was mixed with 0.05 M acetic acid at 4° C. to the concentration of 2 mg/ml. The resulting mixture and Freund's complete adjuvant (CFA) (Sigma-Aldrich) were mixed at an equal amount ratio, and then the resulting mixture was homogenized at 30000 rpm for three minutes by using a homogenizer (Polytron PT3100D) to prepare an antigen material for administration. For a first immunization, the antigen material for administration was intradermally injected to a mouse tail (DBA/1 mouse, six weeks old) (Day 1). Three weeks later, the CFA was replaced by Freund's incomplete adjuvant (IFA) (Sigma-Aldrich), and boosting was performed by the same method.
as §1
In the mice of Example 1-2, from Day 62 after the immunization, the severity of arthritis at the fore paw and the hind paw was assessed three times per week in a score from 0 point (No arthritis) to 4 point (Severe arthritis) according to the degree of edema and flare. The assessment was performed at each leg with the maximum possible score of 16. The clinical score was measured at each mouse by Day 90 after the immunization. […]

cytokine [8] = test: Multiplex measurement of cytokine concentration in serum
Procedure: as §1, §5, §3, §6, §4

cytokine [9] = test: Cytokine concentration in splenocyte culture medium, cultured in the presence of ConA; conditions: ConA 2.5 μg/ml, 48 hours
Procedure: as §1, §5, §2, §3, §6, §4

[10] = tested on: Mice in which rheumatoid arthritis was induced; test: ELISA of anti-mouse type II collagen antibody, C-telopeptide I and C-telopeptide II in serum; conditions: comparison among negative control and treatment groups
Procedure: as §8, with “method. […]” for “method.”
In the serum obtained in Example 1-2, anti-mouse type II collagen antibody, C-terminal telopeptide of Type I collagen (C-telopeptide I) that was a Type I collagen discharged during osteoclastic bone resorption, and C-terminal telopeptide of Type II collagen (C-telopeptide II) that was a chondrolysis product were detected by ELISA.
Specifically, anti-mouse type II collagen antibody, C-telopeptide I, and C-telopeptide II in the serum were measured by using an anti-mouse type II antibody collagen ELISA kit (Astarte Biologics), RatLap™ EIA kit (Immunodiagnostic Systems Ltd.), and a type II collagen ELISA kit (CUSABIO), respectively. […]

CN(Cc1cnc2nc(N)nc(N)c2n1)c1ccc(C(=O)N[C@@H](CCC(=O)O)C(=O)O)cc1 [MTX, methotrexate]
IL-1α concentration (cytokine [1]): 112.01 ± 27.82 pg/mL
IL-4 concentration (cytokine [1]): 0.37 ± 0.24 pg/mL
IL-6 concentration (cytokine [1]): 4676.79 ± 1097.10 pg/mL
KC concentration (cytokine [1]): 199.78 ± 50.25 pg/mL
MCP-1 concentration (cytokine [1]): 250.79 ± 87.01 pg/mL
MIP-2 concentration (cytokine [1]): 2022.27 ± 409.37 pg/mL
RANTES concentration (cytokine [1]): 128.44 ± 24.46 pg/mL
TNF-α concentration (cytokine [1]): 90.65 ± 20.41 pg/mL
IL-1β concentration (cytokine [2]): 4.54 ± 2.88 pg/mL
IL-6 concentration (cytokine [2]): 19.37 ± 11.87 pg/mL
KC concentration (cytokine [2]): 305.82 ± 147.86 pg/mL
MIP-2 concentration (cytokine [2]): 50.36 ± 19.78 pg/mL
RANTES concentration (cytokine [2]): 0.20 ± 0.07* pg/ml
destruction of the joint cartilage [3]: severely damaged
IL-10 concentration (cytokine [4]): 3.75 ± 0.89 pg/mL
IL-17 concentration (cytokine [4]): 4.73 ± 2.01 pg/mL
MCP-1 concentration (cytokine [4]): 591.43 ± 222.2 pg/mL
mice showing a severe morphological defect in the paw joints [5]: four mice out of the seven mice
IL-10 concentration (cytokine [6]): 23.11 ± 4.08 pg/mL
arthritis severity score [7]: a pattern that was similar to that of the negative control group
IL-6 concentration (cytokine [8]): 161.10 ± 59.69 pg/mL
MIP-2 concentration (cytokine [8]): 17.36 ± 8.79* pg/ml
TNF-α concentration (cytokine [8]): 5.22 ± 1.37 pg/mL
IL-1α concentration (cytokine [9]): 21.02 ± 3.77 pg/mL
IL-6 concentration (cytokine [9]): 279.78 ± 71.12 pg/mL
IL-10 concentration (cytokine [9]): 80.76 ± 23.19 pg/mL
IL-17 concentration (cytokine [9]): 1345.14 ± 590.38 pg/mL
KC concentration (cytokine [9]): 10.78 ± 1.86 pg/mL
MCP-1 concentration (cytokine [9]): 549.99 ± 220.33 pg/mL
concentration of C-telopeptide I in serum [10]: not significantly different
